Assay [1] deals with T1, GST-tagged Tankyrase-2 (873-1166 aa) (Homo sapiens, UniProt Q9H2K2).
T1 construct: GST-tagged Tankyrase-2 (873-1166 aa)
As to the kind of experiment: Tankyrase 2 autoparsylation assay (HTRF enzyme assay). Type of assay: biochemical. The procedure: Biochemical Activity Testing of Tankyrase 1 and 2: Autoparsylation Assay
The autoparsylation assay is run in two steps: the enzymatic reaction in which GST-tagged Tankyrase-1, resp Tankyrase-2 transferred biotinylated ADP-ribose to itself from biotinylated NAD as co-substrate and the detection reaction where a time resolved FRET between cryptate labelled anti-GST bound to the GST tag of the enzyme and Xlent® labelled-streptavidin bound the biotin-parsylation residue is analysed. The autoparsylation activity was detectable directly via the increase in HTRF signal.
The autoparsylation assay is performed as 384-well HTRF® (Cisbio, Codolet, France) assay format in Greiner low volume nb 384-well microtiter plates and is used for high throughput screen. 250 nM GST-tagged Tankyrase-1 (1023-1327 aa), respectively about 250 nM GST-tagged Tankyrase-2 (873-1166 aa) and 5 μM bio-NAD (Biolog, Life science Inst., Bremen, Germany) as co-substrate are incubated in a total volume of 5 μl (50 mM HEPES, 4 mM Mg-chloride, 0.05% Pluronic F-68, 1.4 mM DTT, 0.5% DMSO, pH 7.7) in the absence or presence of the test compound (10 dilution concentrations) for 90 min at 30° C. The reaction is stopped by the addition of 1 μl 50 mM EDTA solution. 2 μl of the detection solution (1.6 μM SA-Xlent® (Cisbio, Codolet, France), 7.4 nM Anti-GST-K® (Eu-labelled anti-GST, Cisbio, Codolet, France) in 50 mM HEPES, 800 mM KF, 0.1% BSA, 20 mM EDTA, 0.1% CHAPS, pH 7.0) are added. After 1 h incubation at room temperature the HTRF is measured with an Envision multimode reader (Perkin Elmer LAS Germany GmbH) at excitation wavelength 340 nm (laser mode) and emission wavelengths 615 nm and 665 nm. The ratio of the emission signals is determined. The full value used is the inhibitor-free reaction. The pharmacological zero value used is XAV-939 (Tocris) in a final concentration of 5 μM. The inhibitory values (IC50) are determined using either the program Symyx Assay Explorer® or Condosseo® from GeneData.

The target of assay [2] is T2, GST-tagged Tnks-1 (1023-1327 aa) (Homo sapiens, UniProt O95271).
T2 construct: GST-tagged Tnks-1 (1023-1327 aa, prepared in-house); made in house
T2 sequence (O95271 1023-1327): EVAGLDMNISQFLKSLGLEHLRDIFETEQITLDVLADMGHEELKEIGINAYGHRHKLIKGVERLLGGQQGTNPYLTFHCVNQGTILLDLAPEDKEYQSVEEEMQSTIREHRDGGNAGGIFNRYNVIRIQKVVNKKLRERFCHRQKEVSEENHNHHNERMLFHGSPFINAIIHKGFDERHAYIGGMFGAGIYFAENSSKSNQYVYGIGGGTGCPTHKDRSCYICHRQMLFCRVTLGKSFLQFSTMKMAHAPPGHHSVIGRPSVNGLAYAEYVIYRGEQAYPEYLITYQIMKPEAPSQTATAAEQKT
The experiment in a line: TNKS1 activity ELISA (autoparsylation assay). Type of assay: biochemical. The procedure:
Description of the TNKS1 and TNKS2 ELISA Assay
Biochemical Activity Testing of TNKS 1 and 2: Activity ELISA (Autoparsylation Assay)
For analysis of autoparsylation activity of TNKS 1 and 2 an activity ELISA is performed: In the first step GST tagged TNKS is captured on a Glutathione coated plate. Then the activity assay with biotinylated NAD is performed in the absence/presence of the compounds. During the enzymatic reaction GST tagged TNKS transfers biotinylated ADP-ribose to itself from biotinylated NAD as co-substrate. For the detection streptavidin-HRP conjugate is added that binds to the biotinylated TNKS and is thereby captured to the plates. The amount of biotinylated resp. autoparsylated TNKS is detected with a luminescence substrate for HRP. The level of the luminescence signal correlats directly with the amount of autoparsylated TNKS and therefore with activity of TNKS.
The activity ELISA is performed in 384 well Glutathione coated microtiter plates (Express capture Glutathione coated plate, Biocat, Heidelberg, Germany). The plates are pre-equilibrated with PBS. Then the plates are incubated with 50 μl 20 ng/well GST-tagged Tnks-1 (1023-1327 aa, prepared in-house), respectively GST-tagged Tnks-2 (873-1166 aa, prepared in-house) in assay buffer (50 mM HEPES, 4 mM Mg-chloride, 0.05% Pluronic F-68, 2 mM DTT, pH 7.7) overnight at 4° C. The plates are washed 3 times with PBS-Tween-20. The wells are blocked by incubation at room temperature for 20 minutes with 50 μl blocking buffer (PBS, 0.05% Tween-20, 0.5% BSA). Afterwards the plates are washed 3 times with PBS-Tween-20. The enzymatic reaction is performed in 50 μl reaction solution (50 mM HEPES, 4 mM Mg-chloride, 0.05% Pluronic F-68, 1.4 mM DTT, 0.5% DMSO, pH 7.7) with 10 μM bio-NAD (Biolog, Life science Inst., Bremen, Germany) as co-substrate in the absence or presence of the test compound (10 dilution concentrations) for 1 hour at 30° C. The reaction is stopped by 3 times washing with PBS-Tween-20. For the detection 50 μl of 20 ng/μl Streptavidin, HRP conjugate (MoBiTec, Göttingen, Germany) in PBS/0.05%Tween-20/0.01%BSA are added and the plates are incubated for 30 minutes at room temperature. After three times washing with PBS-Tween-20 50 μl of SuperSignal ELISA Femto Maximum sensitivity substrate solution (ThermoFisherScientific (Pierce), Bonn, Germany) are added. Following a 1 minute incubation at room temperature luminescence signals are measured with an Envision multimode reader (Perkin Elmer LAS Germany GmbH) at 700 nm. The full value used is the inhibitor-free reaction. The pharmacological zero value used is XAV-939 (Tocris) in a final concentration of 5 μM. The inhibitory values (IC50) are determined using either the program Symyx Assay Explorer® or Condosseo® from GeneData.

For nine compounds, IC50 results are on record in patent US9174995B2, “Pyrrolotriazinone derivatives” (Merck Patent GmbH, priority 2012, dated 2015).

T1 sequence (Q9H2K2 873-1166): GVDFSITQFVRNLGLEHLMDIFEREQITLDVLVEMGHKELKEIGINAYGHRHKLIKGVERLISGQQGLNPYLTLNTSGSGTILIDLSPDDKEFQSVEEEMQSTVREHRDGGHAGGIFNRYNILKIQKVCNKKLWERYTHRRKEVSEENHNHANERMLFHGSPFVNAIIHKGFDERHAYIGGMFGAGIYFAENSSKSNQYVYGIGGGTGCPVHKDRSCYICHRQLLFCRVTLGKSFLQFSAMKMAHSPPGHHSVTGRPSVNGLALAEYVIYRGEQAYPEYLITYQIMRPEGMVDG

For `CC(C)(O)c1ccc(-c2nn3cccc3c(=O)[nH]2)cc1` [Compound A5, 2-[4-(1-hydroxy-1-methyl-ethyl)-phenyl]-3H-pyrrolo[2,1-f][1,2,4]triazin-4-one], the IC50 in assay [1] and in assay [2] was under 300 nM in each case.
For the compound `Cn1cc(-c2ccc(-c3nn4cccc4c(=O)[nH]3)cc2)cn1` [Compound A7, 2-[4-(1-methyl-1H-pyrazol-4-yl)-phenyl]-3H-pyrrolo[2,1-f][1,2,4]triazin-4-one], the IC50 in assay [1] is 300 to 3000 nM; in assay [2] it was under 300 nM.
In the case of `Cc1cc2c(=O)[nH]c(-c3ccc(C(C)(C)O)cc3)nn2c1` [Compound A11, 2-[4-(1-hydroxy-1-methyl-ethyl)phenyl]-6-methyl-3H-pyrrolo[2,1-f][1,2,4]triazin-4-one], the IC50 in assay [1] and in assay [2] was under 300 nM each time.
For `CC(C)(O)c1ccc(-c2nn3cc(F)cc3c(=O)[nH]2)cc1` [Compound A12, 6-fluoro-2-[4-(1-hydroxy-1-methyl-ethyl)phenyl]-3H-pyrrolo[2,1-f][1,2,4]triazin-4-one], the half-inhibitory concentration (IC50) in assay [1] and in assay [2] was under 300 nM throughout.
In the case of `Cc1cc2c(=O)[nH]c(-c3ccc(-c4cnn(C)c4)cc3)nn2c1` [Compound A13, 6-methyl-2-[4-(1-methylpyrazol-4-yl)phenyl]-3H-pyrrolo-[2,1-f][1,2,4]triazin-4-one], the IC50 in assay [1] and in assay [2] was under 300 nM throughout.
`CCC(O)(CC)c1ccc(-c2nn3cccc3c(=O)[nH]2)cc1` [Compound A14, 2-[4-(1-ethyl-1-hydroxy-propyl)-phenyl]-3H-pyrrolo[2,1-f][1,2,4]triazin-4-one]: the IC50 in assay [1] and in assay [2] was under 300 nM throughout.
For the compound `CC(C)(OCCO)c1ccc(-c2nn3cccc3c(=O)[nH]2)cc1` [Compound A15, 2-{4-[1-(2-hydroxy-ethoxy)-1-methyl-ethyl]-phenyl}-3H-pyrrolo[2,1-f][1,2,4]triazin-4-one], the concentration for half-maximal inhibition (IC50) in assay [1] and in assay [2] was under 300 nM throughout.
`CC(C)(O)c1ccc(-c2nn3cc(Cl)cc3c(=O)[nH]2)cc1` [Compound A18, 6-chloro-2-[4-(1-hydroxy-1-methyl-ethyl)-phenyl]-3H-pyrrolo[2,1-f][1,2,4]triazin-4-one]: the IC50 in assay [1] and in assay [2] was under 300 nM each time.
On to `O=c1[nH]c(-c2ccc(C3(O)CCCC3)cc2)nn2cccc12` [Compound A21, 2-[4-(1-hydroxy-cyclopentyl)-phenyl]-3H-pyrrolo[2,1-f][1,2,4]-triazin-4-one], for which the IC50 in assay [1] and in assay [2] was under 300 nM in each case.
